Consider nine compounds from PMC3139790 (Bioorganic & medicinal chemistry, 2011).

For one experiment, the system named is Vaccinia. To be noted: read-out: EC50 Vaccinia; in vitro; ref Beadle et al. (ref. [13]); cited from earlier work.
Another experiment has as its system Cowpox. The note with it: read-out: EC50 Cowpox; cited from earlier work.
The next experiment concerns HCMV. To be noted: read-out: EC50 HCMV; in vitro; ref Beadle et al. (ref. [13]); cited from earlier work.
Experiment [1] deals with genotype 1b and 2a HCV replicons. Description: HCV replicon assays, genotype 1b and 2a stated together. The experiment is classed as cell-based, hepatitis C virus. The note with it: for EC50: Hepatitis C virus, GETYPE1B, read-out: EC50 in genotype 1b and 2a HCV replicons.
In experiment [2] the test system is genotype 2a HCV replicon (JFH-1). Description: HCV replicon assay, JFH-1. The experiment is classed as cell-based, hepatitis C virus. The note with it: CC50/EC50, genotype 2a. Background: Replicon systems follow genome replication, usually without infectious particles.
Experiment [3] relates to genotype 1b HCV replicon (BM4-5). Nature of the experiment: HCV replicon assay, BM4-5. The experiment is classed as cell-based, hepatitis C virus. To be noted: CC50/EC50, genotype 1b.
In experiment [4] the test system is HIV-1LAI. Description: HIV-1 inhibition assay in MT-2 cells. Type of experiment: cell-based. The note with it: HIV-1 in MT-2 cells.
For experiment [5], the system named is HIV-1LAI. To be noted: HIV-1 infected MT-2 cells, previous studies; cited from earlier work.

Each structure is given as a SMILES string.

Regarding `CCCCCCCCCCCCCCCCCCOCCOP(=O)(O)CO[C@H](CO)Cn1cnc2c(N)ncnc21` [Compound 1, octadecyloxyethyl 9-(S)-[3-hydroxy-2-(phosphonomethoxy)propyl]adenine], the values for the EC50 in the experiment with Vaccinia, in the experiment on Cowpox and in the experiment with HCMV were 20 ± 10 nM, 50 ± 40 nM and 3 ± 1 nM, respectively.

On to `CCCCCCCCCCCCCCCCCCOCCOP(=O)(O)CO[C@H](COC)Cn1cnc2c(N)ncnc21` [Compound 15, Octadecyloxyethyl (S)-9-[(3-methoxy-2-phosphonomethoxy)propyl]adenine], for which the half-maximal effective concentration (EC50) in experiment [1] was 1000 to 2000 nM.

Consider `CCCCCCCCCCCCCCCCCCOCCOP(=O)([O-])CO[C@H](COC)Cn1cnc2c(=O)[nH]c(N)nc21.[Na+]` [Compound 34, Octadecyloxyethyl (S)-9-[(3-methoxy-2-phosphonomethoxy)propyl]guanine], for which the “Selectivity Index JFH-1 (2a)” value in experiment [2] is above 14.0. Moreover, in experiment [3], the “Selectivity Index BM4-5 (1b)” value is on record as above 18.2.

With `CCCCCCCCCCCCCCCCCCOCCOP(=O)([O-])CO[C@@H](COC)Cn1cnc2c(=O)[nH]c(N)nc21.[Na+]` [Compound 35, Octadecyloxyethyl (R)-9-[(3-methoxy-2-phosphonomethoxy)propyl]guanine], the “Selectivity Index JFH-1 (2a)” value in experiment [2] is above 12.1. Moreover, the “Selectivity Index BM4-5 (1b)” value in experiment [3] is on record as above 11.9. The “Selectivity Index” value in the experiment with HIV-1LAI [4] was >4.4×10^6.

For the compound `CCCCCCCCCCCCCCCCCCOCCOP(=O)([O-])CO[C@H](COC)Cn1ccc(N)nc1=O.[Na+]` [Compound 40, Octadecyloxyethyl (S)-1-[(3-methoxy-2-phosphonomethoxy)propyl]cytosine], in experiment [1] (genotype 1b and 2a replicons), the “anti-HCV activity (in words)” value was “inactive”.

On to `CCCCCCCCCCCCCCCCOCCCOP(=O)(O)CO[C@H](COC)Cn1cnc2c(OC)ncnc21` [Compound 43, Hexadecyloxypropyl (S)-9-[(3-methoxy-2-phosphonomethoxy)propyl]-6-methoxypurine], for which the EC50 in experiment [1] lay in the range of 8900 to 12500 nM.

With `CCCCCCCCCCCCCCCCOCCCOP(=O)(O)CO[C@H](COC)Cn1cnc2c(OC)nc(N)nc21` [Compound 44, Hexadecyloxypropyl (S)-9-[(3-methoxy-2-phosphonomethoxy)propyl]-6-O-methylguanine], the EC50 in experiment [1] is 18000 to 26000 nM.

As for `Nc1ncnc2c1ncn2CCOCP(=O)(O)O` [adefovir], the EC50 with HIV-1LAI [5] was 1100 nM.

As to `C[C@H](Cn1cnc2c(N)ncnc21)OCP(=O)(O)O` [tenofovir], the half-maximal effective concentration (EC50) in the experiment on HIV-1LAI [5] was 650 nM.

The term EC50 denotes the concentration that produces a half-maximal response.
